The target of assay [1] is Peroxisome proliferator-activated receptor gamma/Nuclear receptor coactivator 2 (Homo sapiens, UniProt P37231). It is filed as functional.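 Further: agonist potency for raising coactivator recruitment to the receptor.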
For assay [2], the target named is Peroxisome proliferator-activated receptor gamma/Nuclear receptor coactivator 1 (Homo sapiens, UniProt P37231). It is filed as functional.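 Further: agonist potency as compounds enhance coactivator SRC-1 recruitment to PPARgamma.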
Assay [3] concerns the target Peroxisome proliferator-activated receptor gamma/Nuclear receptor coactivator 3 (Homo sapiens, UniProt P37231). Format: functional.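 Further: agonist potency for raising coactivator recruitment to the receptor.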
The next assay concerns the target Cytochrome P450 2C19 (Homo sapiens, UniProt P33261). Nature of the assay: Cytochrome panel assay with activity outcomes. Panel member name: p450-cyp2c19 Compounds with AC50 equal or less than 10 uM are considered active. It is filed as functional. The conditions noted are these: read-out: AC50.
Assay [4] is described as follows: A549 cell cytotoxicity, dose response, cytotoxicity control, plate reader, cherry-pick, antagonist series (AID 743412). It is filed as functional, cell-based.
Assay [5] can be described thus: toxicity toward HepG2 liver cells – cell-based, plate reader, cherry-pick, antagonist series, cytotoxicity control, dose response (AID 743416). It is filed as functional.
Assay [6] is described as follows: blockers of bursicon-stimulated LGR2 cAMP reporter – cell-based, HEK293, CRE-luciferase reporter, cherry pick, set 2, dose response (AID 743343).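 Further: transfected cells were stimulated with diluted bursicon conditioned medium after compound addition.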 It is filed as functional. On the technique in general: A reporter such as luciferase makes a cellular process visible.
A short description of assay [7]: blockade of melanocortin 4 receptor signaling – cell-based, plate reader, cherry pick, counter-screen for LGR2 antagonist project, dose response (AID 743444).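 Further: transfected HEK 293 cells stimulated with alpha-MSH peptide; potency of inhibitors of the alpha-MSH evoked signal.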 Format: functional. A general note: A counterscreen serves to expose hits that act by an unwanted route or on another target.
For assay [8], the target named is T1, Oxysterols receptor LXR-beta (Homo sapiens, UniProt P55055).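 Further: Cell-based luminescence dose-response assay of agonist activity at LXR, run as a confirmatory counterscreen to a daf-12 agonist screen; HEK293 cells with Gal4-LXR fusion and GAL4-driven luciferase reporter; agonist potency from rising luciferase signal of a Gal4-LXR reporter.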
T1 sequence (P55055 whole entry): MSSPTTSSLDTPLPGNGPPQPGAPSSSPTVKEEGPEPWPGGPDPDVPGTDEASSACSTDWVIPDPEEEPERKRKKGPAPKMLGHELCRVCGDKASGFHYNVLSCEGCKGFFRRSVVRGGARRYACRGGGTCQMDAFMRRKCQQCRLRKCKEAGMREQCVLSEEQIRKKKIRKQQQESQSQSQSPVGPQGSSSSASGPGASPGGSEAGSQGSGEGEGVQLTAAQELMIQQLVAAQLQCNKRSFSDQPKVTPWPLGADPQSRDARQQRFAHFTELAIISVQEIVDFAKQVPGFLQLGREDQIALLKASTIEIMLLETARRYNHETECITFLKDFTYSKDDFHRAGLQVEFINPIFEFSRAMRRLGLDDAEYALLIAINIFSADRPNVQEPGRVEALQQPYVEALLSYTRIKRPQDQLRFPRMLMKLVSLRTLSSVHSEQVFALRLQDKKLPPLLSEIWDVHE
It is filed as functional, cell-based.

The target of a further assay is Cytochrome P450 2D6 (Homo sapiens, UniProt P10635).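 Further: CYP2D6 member of a cytochrome P450 panel assay.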
Chain of Cytochrome P450 2D6 (P10635 whole entry): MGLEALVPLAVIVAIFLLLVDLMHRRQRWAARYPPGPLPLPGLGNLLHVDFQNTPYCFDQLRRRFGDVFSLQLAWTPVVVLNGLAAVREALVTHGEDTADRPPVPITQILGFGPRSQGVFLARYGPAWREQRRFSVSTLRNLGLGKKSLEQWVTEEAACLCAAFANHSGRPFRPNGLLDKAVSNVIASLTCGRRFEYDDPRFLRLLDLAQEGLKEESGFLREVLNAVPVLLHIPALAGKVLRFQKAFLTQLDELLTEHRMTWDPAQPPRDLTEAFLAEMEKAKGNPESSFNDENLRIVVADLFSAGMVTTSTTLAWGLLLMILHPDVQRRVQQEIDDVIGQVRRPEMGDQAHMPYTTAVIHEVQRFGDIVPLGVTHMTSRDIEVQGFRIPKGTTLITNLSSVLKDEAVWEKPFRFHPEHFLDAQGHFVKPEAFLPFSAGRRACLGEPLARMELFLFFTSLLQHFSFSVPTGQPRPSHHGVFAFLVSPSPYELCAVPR
For assay [9], the target named is NAD-dependent protein deacylase sirtuin-5, mitochondrial (Homo sapiens, UniProt Q9NXA8). Nature of the assay: sirtuin-5 deacylation blockers, concentration series – biochemical, fluorescence imaging, cherry-pick, set 5, dose response (AID 720591).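 Further: desuccinylation of succinyl peptide AMC substrate read as fluorescence after trypsin release; potency of inhibitors that lower fluorescence and may act on trypsin instead.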
Chain of NAD-dependent protein deacylase sirtuin-5, mitochondrial (Q9NXA8 whole entry): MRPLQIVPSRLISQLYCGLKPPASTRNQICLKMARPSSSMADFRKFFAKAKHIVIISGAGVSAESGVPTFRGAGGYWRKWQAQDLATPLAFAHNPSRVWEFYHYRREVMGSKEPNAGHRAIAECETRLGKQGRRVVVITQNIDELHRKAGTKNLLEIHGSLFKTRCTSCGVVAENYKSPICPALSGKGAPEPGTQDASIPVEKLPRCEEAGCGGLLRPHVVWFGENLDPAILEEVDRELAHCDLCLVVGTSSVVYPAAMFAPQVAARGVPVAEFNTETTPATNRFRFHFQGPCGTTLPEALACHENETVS

Data on 2 compounds can be found in ChEMBL document CHEMBL1201862, “PubChem BioAssay data set” (2004).

The EC50 is the concentration giving half of the maximal effect. By AC50 is commonly meant the concentration at which the activity in the assay is half-maximal.

Active and inactive are the calls of the source. Bounds are passed on as bounds.

Chain of Cytochrome P450 2C19 (P33261 whole entry): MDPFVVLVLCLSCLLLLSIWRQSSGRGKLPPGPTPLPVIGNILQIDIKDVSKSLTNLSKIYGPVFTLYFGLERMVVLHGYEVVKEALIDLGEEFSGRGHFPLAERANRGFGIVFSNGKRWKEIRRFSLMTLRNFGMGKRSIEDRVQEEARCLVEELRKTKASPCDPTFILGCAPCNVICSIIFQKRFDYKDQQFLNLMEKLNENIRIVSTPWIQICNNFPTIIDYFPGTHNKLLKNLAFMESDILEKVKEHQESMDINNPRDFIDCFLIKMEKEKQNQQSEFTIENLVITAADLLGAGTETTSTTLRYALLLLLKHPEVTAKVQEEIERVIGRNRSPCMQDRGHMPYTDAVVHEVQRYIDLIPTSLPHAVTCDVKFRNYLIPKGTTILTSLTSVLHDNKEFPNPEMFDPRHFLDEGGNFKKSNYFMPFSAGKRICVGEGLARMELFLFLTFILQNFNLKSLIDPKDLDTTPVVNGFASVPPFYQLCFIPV
Chain of Peroxisome proliferator-activated receptor gamma/Nuclear receptor coactivator 2 (P37231 whole entry): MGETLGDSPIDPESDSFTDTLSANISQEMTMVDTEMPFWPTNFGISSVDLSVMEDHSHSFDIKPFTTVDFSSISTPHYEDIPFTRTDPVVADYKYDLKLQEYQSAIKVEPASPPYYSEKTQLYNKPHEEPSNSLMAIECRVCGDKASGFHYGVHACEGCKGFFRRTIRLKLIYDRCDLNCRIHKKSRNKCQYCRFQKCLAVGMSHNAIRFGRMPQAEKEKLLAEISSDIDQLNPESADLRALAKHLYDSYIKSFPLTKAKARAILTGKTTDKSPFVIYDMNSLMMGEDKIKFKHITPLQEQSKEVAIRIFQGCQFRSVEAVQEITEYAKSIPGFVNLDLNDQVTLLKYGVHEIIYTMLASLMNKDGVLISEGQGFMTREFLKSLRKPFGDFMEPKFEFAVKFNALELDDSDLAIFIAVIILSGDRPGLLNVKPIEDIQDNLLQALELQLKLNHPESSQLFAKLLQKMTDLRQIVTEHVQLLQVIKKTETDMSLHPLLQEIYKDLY
Chain of Peroxisome proliferator-activated receptor gamma/Nuclear receptor coactivator 2 (Q15596 whole entry, further chain): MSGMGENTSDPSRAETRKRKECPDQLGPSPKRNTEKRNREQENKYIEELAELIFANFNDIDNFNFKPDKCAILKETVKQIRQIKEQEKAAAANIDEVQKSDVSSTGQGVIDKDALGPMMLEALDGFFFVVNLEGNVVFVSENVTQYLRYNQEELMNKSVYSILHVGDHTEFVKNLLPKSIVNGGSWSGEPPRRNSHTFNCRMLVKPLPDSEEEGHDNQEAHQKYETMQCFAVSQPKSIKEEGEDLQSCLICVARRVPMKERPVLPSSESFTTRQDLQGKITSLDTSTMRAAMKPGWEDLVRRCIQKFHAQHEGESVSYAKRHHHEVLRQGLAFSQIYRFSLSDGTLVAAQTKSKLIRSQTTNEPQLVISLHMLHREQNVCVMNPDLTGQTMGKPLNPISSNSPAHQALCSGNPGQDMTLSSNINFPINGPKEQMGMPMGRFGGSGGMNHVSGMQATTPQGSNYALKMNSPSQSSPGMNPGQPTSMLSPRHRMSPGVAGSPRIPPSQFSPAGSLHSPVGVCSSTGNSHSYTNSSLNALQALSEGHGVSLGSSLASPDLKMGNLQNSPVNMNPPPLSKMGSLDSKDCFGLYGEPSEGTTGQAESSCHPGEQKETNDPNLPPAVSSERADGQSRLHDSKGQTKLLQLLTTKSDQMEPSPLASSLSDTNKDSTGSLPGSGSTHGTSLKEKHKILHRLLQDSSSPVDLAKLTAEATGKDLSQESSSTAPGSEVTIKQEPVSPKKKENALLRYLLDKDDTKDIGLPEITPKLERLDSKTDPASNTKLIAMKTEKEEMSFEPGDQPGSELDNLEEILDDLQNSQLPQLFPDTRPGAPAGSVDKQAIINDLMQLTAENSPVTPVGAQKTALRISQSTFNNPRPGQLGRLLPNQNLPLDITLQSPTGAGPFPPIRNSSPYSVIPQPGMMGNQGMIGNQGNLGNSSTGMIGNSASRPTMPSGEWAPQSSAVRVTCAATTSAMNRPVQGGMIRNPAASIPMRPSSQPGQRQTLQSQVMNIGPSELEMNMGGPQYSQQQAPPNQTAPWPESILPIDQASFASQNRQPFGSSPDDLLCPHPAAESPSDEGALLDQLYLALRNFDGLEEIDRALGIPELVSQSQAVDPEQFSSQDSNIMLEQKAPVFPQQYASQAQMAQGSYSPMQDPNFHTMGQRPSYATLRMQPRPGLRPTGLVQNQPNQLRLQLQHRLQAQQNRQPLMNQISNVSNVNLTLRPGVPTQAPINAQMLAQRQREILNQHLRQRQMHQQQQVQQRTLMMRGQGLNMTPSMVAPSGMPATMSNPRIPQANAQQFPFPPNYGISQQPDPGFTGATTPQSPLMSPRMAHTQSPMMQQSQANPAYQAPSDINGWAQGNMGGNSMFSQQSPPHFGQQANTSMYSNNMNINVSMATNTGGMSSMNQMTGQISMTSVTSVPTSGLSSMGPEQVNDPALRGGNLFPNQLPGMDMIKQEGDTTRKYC

On to `Cc1ccc(NC(=O)c2sc3ccccc3c2Cl)nc1`, for which the half-maximal effective concentration (EC50) in [1] was 41.5 µM (not active); in [2], 53.2 µM (not active); in assay [3], 52 µM (not active); in [8], > 67.5 µM (inactive); in the assay “cells”, > 67.5 µM (inactive). Besides, the AC50 at Cytochrome P450 2C19 is 7.94 µM (inconclusive); in assay [4] it was 50.8 µM (active); in assay [5] it was > 52 µM (inactive); in assay [6] it was 2.52 µM (active); in [7], 3.36 µM (active); on Cytochrome P450 2D6 it was 3.16 µM (inconclusive).
In the case of `COC(=O)[C@]12CCCCC=C1N(Cc1ccc(Cl)cc1Cl)C(=O)[C@H](CC(=O)NCc1cccc(C(F)(F)F)c1)C2`, the AC50 in assay [9] is > 30 µM (inactive).
